The source of these data is publication PMC8123395, “Aggregation and Its Influence on the Bioactivities of a Novel Antimicrobial Peptide, Temporin-PF, and Its Analogues” (International Journal of Molecular Sciences, 2021).

No end group written: not given here.

One data set has as its system S. aureus biofilm. Format: cell-based. The following applies: biofilm, 24 h. The method, then:
(§1) MBIC and MBEC assays were performed as previously described with minor modifications. For the MBIC assay, a suspension of broth diluted bacteria culture (5 × 10^5 CFU/mL) was incubated with the peptide solutions at 37 °C for 24 h. For MBEC assay, 100 μL inoculum culture was seeded to a 96-well-flat-bottom plate and incubated at 37 °C for 48 h to obtain the mature biofilm. Afterwards, the plate was washed by sterile phosphate-buffered saline (PBS; Sigma-Aldrich, Gillingham, UK) twice and treated with a series peptide solution at 37 °C for 24 h. Then, all the plates were washed with PBS and stained by 100 μL 0.1% crystal violet solution (Sigma-Aldrich, Gillingham, UK), and further dissolved by 30% acetic acid (Sigma-Aldrich, Gillingham, UK). The absorbance of each well was recorded by Synergy HT plate reader (Biotech, Minneapolis, MN, USA) at 595 nm.

For another data set, the system named is MRSA biofilm. It is filed as cell-based. The following applies: biofilm, 24 h. The method, then: as §1
The next data set deals with MRSA mature biofilm. Format: cell-based. The following applies: mature biofilm, 48 h. The method, then: as §1
The next data set concerns S. aureus mature biofilm. Format: cell-based. The following applies: mature biofilm, 48 h. The method, then:
as §1

A short description of data set [1]: Circular dichroism, helix content by BeStSel. Format: physicochemical. The settings on record: CD, room temperature, BeStSel analysis. The procedure: Figure 8 CD spectra of TPF and the analogs (50 μM) prepared in 10 mM NH4AC, 50% TFE/10 mM NH4AC, 3 mM DPPG/DPPE (88:12) SUVs, and 3 mM DPPC SUVs. The spectra were averaged over three consecutive scans, and the solvent CD signal was subtracted.
The determination of the secondary structure of peptides was conducted using a JASCO J-815 CD Spectropolarimeter (JASCO Inc., Tokyo, Japan) as described in the previous study. Then, 50 μM of each peptide sample was prepared in the aqueous 10 mM ammonium acetate (NH4Ac; Sigma-Aldrich, Gillingham, UK) buffer, 50% (v/v) 2,2,2-trifluoroethanol (TFE; Sigma-Aldrich, Gillingham, UK), and 3 mM DPPG:DPPE (88:12) and DPPC small unilamellar liposomes/vesicles (SUVs) that were used to mimic the bacterial and mammalian erythrocyte cell membranes, respectively. The liposome was hydrated in deionized water and then sonicated for 15 min with an interval 30 s in an ice bath for generating SUVs. Samples were loaded in a 1-mm thickness quartz cuvette and analyzed at room temperature with the following parameters: scan range of 190–250 nm, scanning speed of […], 1 nm bandwidth, and 0.5 nm data pitch. The spectra were obtained by averaging data from three scans. The CD spectra were analyzed by BeStSel (http://bestsel.elte.hu/index.php, accessed on 16 May 2020) for the determination of secondary structure content.
In general terms: Circular dichroism is the unequal absorption of left and right circularly polarised light.

The nature of data set [2]: Observation of aggregation: turbidity (absorbance at 600 nm) in media and salt solutions. Format: physicochemical. The settings on record: peptide 1 mg/mL; 0.25, 0.5 and 1 M Na2HPO4, CaCl2 or MgCl2; absorbance 600 nm. The procedure:
Figure 3 The absorbance of TPF and the analogs prepared in (a) a series of culture media, including PBS, RPMI1640, RPMI1640 with 10% FBS, TSB, and MHB; 0.25, 0.5, and 1 M of (b) Na2HPO4, (c) CaCl2, and (d) MgCl2 solutions. Peptide solutions were prepared from 1 mg/mL, and the wavelength was set as 600 nm. The error bar represents the standard deviation (SD) with three replicates.
The method was followed the previous study with modifications. The purified peptides were prepared at 10 mg/mL in water and subsequently diluted with different solutions, including PBS, RPMI1640, RPMI1640 with 10% FBS, TSB, MHB, Na2HPO4 (0.25, 0.5, and 1 M), CaCl2 (0.25, 0.5, and 1 M), and MgCl2 (0.25, 0.5, and 1 M), in a 96-well plate to achieve the final concentration of 1 mg/mL. The turbidity of each well was detected using the absorbance at 600 nm by a plate reader. The peptides dissolved in water were applied as negative control.

Data set [3] has as its system methicillin-resistant S. aureus (MRSA) (NCTC 12493). Format: cell-based. The following applies: NCTC 12493, pH 7.4. The procedure: (§2) The minimum inhibitory concentration (MIC) and minimum bactericidal concentration (MBC) of peptides against the selected microorganisms were determined using the broth-dilution method, as described in the previous study. […] were used in the assay: Gram-positive bacteria Staphylococcus aureus (NCTC 10788), Enterococcus faecalis (NCTC 12697), and methicillin-resistant S. aureus (MRSA) (NCTC 12493); Gram-negative bacteria Escherichia coli (NCTC 10418), Pseudomonas aeruginosa (ATCC 27853), and Klebsiella pneumoniae (ATCC 43816). All the strains were cultured in Mueller Hinton Broth (MHB), pH 7.4 (Oxiod, Basingstoke, UK). Each peptide was tested at the final concentration from 128 to 1 µM in two-fold dilution. Norfloxacin was applied as the positive control.

Data set [4] concerns Pseudomonas aeruginosa (ATCC 27853). It is filed as cell-based. The following applies: ATCC 27853, pH 7.4. The procedure: as §2
Data set [5] concerns Enterococcus faecalis (NCTC 12697). Format: cell-based. The following applies: NCTC 12697, pH 7.4. The method, then:
as §2

The subject of data set [6] is Escherichia coli (NCTC 10418). Format: cell-based. The settings on record: NCTC 10418, pH 7.4. The method, then:
as §2

Data set [7] relates to Klebsiella pneumoniae (ATCC 43816). It is filed as cell-based. The settings on record: ATCC 43816, pH 7.4. The method, then: as §2
The subject of data set [8] is Staphylococcus aureus (NCTC 10788). Format: cell-based. The following applies: NCTC 10788, pH 7.4. The method, then:
as §2

Turning to LPLIAGLFGKIF-NH2 [des-Phe1 TPF], the figures for the MBIC with S. aureus biofilm and with MRSA biofilm were 16 µM and 32/32 µM, respectively. The results for the MBEC in the data set with MRSA mature biofilm and in the data set on S. aureus mature biofilm were 32/32 µM and 32 µM, respectively. In [1] (50 μM peptide in 3 mM DPPC SUVs (erythrocyte membrane mimic)), the “Helix Content % DPPC” value is 16.4%. In addition, in data set [1] (50 μM peptide in 3 mM DPPG/DPPE (88:12) SUVs (bacterial membrane mimic)), the “Helix Content % DPPG/DPPE” value is listed as 26.7%. Also, the “Helix Content % 50% TFE” value in data set [1] (50 μM peptide in 50% TFE/10 mM NH4AC, three scans averaged) is on record as 37.7%. In addition, the “aggregation (salting-out) in salt solutions” value in [2] is “low degree of capability for aggregation”. Further, the MBC (usually the lowest tested concentration that kills the bacteria rather than only halting them) in data set [3] is 32 µM; in data set [4], > 128 µM; in data set [5], 32 µM; in [6], 128 µM; in data set [7], 128 µM; in data set [8] it was 16 µM. Also, the minimal inhibitory concentration (MIC) (usually the lowest concentration found to suppress growth) is 32 µM in [3]; > 128 µM in data set [4]; 32 µM in data set [5]; 64 µM in data set [6]; 128 µM in [7]; 16 µM in [8].
